# Source: a melting point compilation (Tetko et al.)
# Conditions: a range is the spread between reports
row,SMILES,melting point [°C]
1,N#CC(C#N)=C(C#N)C#N,198 to 199
2,CCCCCO,-79 to -78
3,O=C(Oc1ccccc1)c1ccccc1C(=O)Oc1ccccc1,73 to 75
4,O=C(O)CCCCCBr,34 to 35
5,O=C(O)c1cc(F)cc(F)c1,121 to 122
6,O=C(O)c1cccc([N+](=O)[O-])c1Cl,181 to 184
7,c1cnc2[nH]ccc2c1,105 to 106
8,Brc1ccc(-c2ccccc2)cc1,90 to 91.5
9,O=Cc1ccc(Oc2ccccc2)cc1,24.5 to 25
10,O=C(Nc1ccccc1)c1ccccc1O,136 to 137
11,O=[N+]([O-])c1ccc(Oc2ccc(Cl)cc2Cl)cc1,70 to 70.5
12,C=CCCCCCCCCC(=O)O,24 to 24.5
13,OCc1c(F)c(F)c(F)c(F)c1F,34 to 37.5
14,COc1ccc(OC)c(C=O)c1,49 to 52
15,CC(C=CC1=C(C)CCCC1(C)C)=CC=CC(C)=CCO,63 to 63.5
16,CCOc1cc(C=O)ccc1O,77 to 77.5
17,Cc1cncc(C)c1,-9 to -6.6
18,O=C1CC[C@@H](C(=O)O)N1,160 to 162
19,O=[N+]([O-])c1ccc(Nc2ccccc2)c([N+](=O)[O-])c1,159 to 160
20,O=C(Cl)c1cc(C(=O)Cl)cc(C(=O)Cl)c1,36 to 36.3
21,O=[N+]([O-])c1cccc(CBr)c1,58 to 59.3
22,Cn1nnnc1S,122 to 127
23,CC(C)C(=O)OC(=O)C(C)C,-56 to -53.5
24,O=Cc1ccccc1Cl,9 to 12.4
25,N#Cc1cc([N+](=O)[O-])c(Cl)c([N+](=O)[O-])c1,141
26,NCC1CCNCC1,24 to 25

row,SMILES,melting point [°C]
1,O=[N+]([O-])c1cccc([N+](=O)[O-])c1Cl,86 to 88
2,O=C(OC(=O)C(F)(F)F)C(F)(F)F,-65 to -63
3,Fc1c(F)c(F)c2c(F)c(F)c(F)c(F)c2c1F,87 to 87.5
4,CCCc1ccccc1C,-60.3 to -60
5,CC(C)(C)c1ccc(Br)cc1,16 to 19
6,COc1cc(OC)cc(C(=O)O)c1,184 to 186
7,CCC1(C(C)C)C(=O)NC(=O)NC1=O,198 to 203
8,OCc1ccc2c(c1)OCO2,53 to 58
9,O=[N+]([O-])c1cc(I)c(O)c(I)c1,153 to 157
10,C1CCNCC1,-11 to -7
11,N#Cc1ccccc1-c1ccccc1,38 to 41
12,CCOC(=O)c1ccccc1N,13 to 15
13,N#Cc1cccc(C=O)c1,76.5 to 77
14,O=S(=O)(Cl)c1ccc2ccccc2c1,76 to 81
15,CNc1ccccc1[N+](=O)[O-],35 to 38
16,O=C=Nc1ccc([N+](=O)[O-])cc1,57 to 58
17,C=CC(=O)OCC,-71.2 to -71
18,CCCCCOC(=O)CCC,-73.2 to -73
19,CC(=O)C(C)C,-93.1 to -92
20,N#Cc1ccccc1O,93.5 to 98
21,CCc1ccccc1CC,-31.2 to -31
22,Cc1ccc2c(c1)C(=O)c1ccccc1C2=O,172 to 177
23,Oc1ccc2cccc(O)c2c1,180 to 182
24,CCC(C)(CC)CC,-91 to -90.9
25,CCCCCCCCCCCCCCCCCCC,32 to 33
26,N#CCc1cccc(CC#N)c1,33 to 34

row,SMILES,melting point [°C]
1,O=C1C(=O)c2cccc3cccc1c23,258 to 261
2,CC(=O)N[C@@H](Cc1ccc(O)cc1)C(=O)O,149 to 153
3,CC(=O)c1ccncc1,15 to 16
4,Cc1ccc2cc3c(ccc4ccccc43)c3c2c1CC3,180
5,N#Cc1cccc(C#N)c1,161 to 162
6,BrC(Br)Br,8 to 9
7,COC(=O)CCCCC(=O)OC,8 to 10.3
8,CC(C)(N)CO,25.5 to 30
9,Oc1cccc(Cl)c1,32 to 34
10,CC(=O)c1ccc(Cl)cc1,18 to 20
11,CC(C)CCC(=O)O,-35 to -33
12,CC(C)=O,-95 to -94
13,c1ccc2c(c1)Cc1ccccc1C2,108 to 111
14,CCCCC(C)(C)C,-121
15,CC(Oc1ccccc1Cl)C(=O)O (centres undefined),113 to 114
16,CCc1ccccc1N,-47 to -44
17,Nc1ccc([N+](=O)[O-])cc1,146 to 150
18,Cc1ccc([N+](=O)[O-])c(C)c1,6 to 9
19,ClC1=C(Cl)[C@]2(Cl)[C@@H]3[C@@H]4C[C@@H]([C@H]5O[C@@H]45)[C@@H]3[C@@]1(Cl)C2(Cl)Cl,175 to 176
20,N#CSCc1ccccc1,42 to 43
21,CCCCCCCCCCCCCCCCCC(=O)CCCCCCCCCCCCCCCCC,87 to 89
22,CC1CCCC1,-143 to -142
23,O=C(CCNNC(=O)c1ccncc1)NCc1ccccc1,151 to 152
24,Oc1ccc(Br)cc1Cl,49 to 50.5
25,Cc1ccnc2ccccc12,9.5 to 10
26,CCOCOCC,-66.5 to -66

row,SMILES,melting point [°C]
1,CCCC(C)Br (centres undefined),-96 to -95.5
2,CC12C=CC(=O)C=C1CCC1C2C(O)CC2(C)C1CCC2(O)C(=O)CO (centres undefined),235 to 240
3,CCC(C)(C)C(C)C,-101
4,Cc1cc(C)c(C)c(CCl)c1C,69.5 to 70.5
5,Clc1cc(Cl)c(-c2ccccc2)cc1Cl,76 to 78
6,c1ccc2[nH]c(-c3cscn3)nc2c1,300
7,N#CC1=C(C#N)C(=O)C(Cl)=C(Cl)C1=O,214 to 215
8,COc1cc(Cl)cc(Cl)c1,40 to 41
9,NCCc1c[nH]c2ccccc12,114 to 118
10,Nc1cc(Cl)cc(Cl)c1,51 to 53
11,Oc1ccc(F)cc1,44.5 to 48
12,CCCC#CCCC,-103 to -101
13,CC(C)(Br)C(=O)O,44 to 48.5
14,C[Si](C)(C)C,-100 to -99
15,CCC1CCCC1C (centres undefined),-106
16,O=c1cc(-c2ccccc2)oc2cc(O)cc(O)c12,286 to 287
17,O=C(O)C(F)(F)C(F)(F)C(F)(F)C(F)(F)C(F)(F)C(F)(F)C(F)(F)F,54.3 to 55.5
18,CCCCCl,-123
19,CC(C)(C)OOC(=O)c1ccccc1,7 to 8
20,CCOc1ccc(C=O)cc1,13.5 to 14
21,O=C(CBr)c1ccccc1,49 to 50.5
22,CCc1ccc(C(=O)O)cc1,112 to 113
23,COc1cc([N+](=O)[O-])ccc1N,140 to 141
24,O=C1CCCCC1c1ccccc1 (centres undefined),57 to 58
25,CN(C)C(=O)Nc1ccccc1,132 to 134
26,COCCOc1c(OC)cc(Cc2cnc(N)nc2N)cc1OC,154

# Next, values leading:
row,melting point [°C],SMILES
1,47 to 49.5,COC(C(=O)c1ccccc1)c1ccccc1 (centres undefined)
2,139 to 142,O=C(O)c1ccccc1Cl
3,136 to 137,O=C(O)c1ccccn1
4,83.5 to 84.5,CC[C@H]1CC[C@H]2[C@@H]3CC[C@@H]4CCCC[C@]4(C)[C@H]3CC[C@]12C
5,-15 to -14.8,c1ccc2ncccc2c1
6,26 to 28.5,COc1ccc(Cl)cc1Cl
7,-104,CCSCC
8,26 to 27,Cc1ccc(F)cc1[N+](=O)[O-]
9,39 to 40,O=C(c1ccccc1)c1ccccc1O
10,-41 to -40.7,CCCCC(O)CCC (centres undefined)
11,215 to 216,CC(=O)Nc1ccc([N+](=O)[O-])cc1
12,71 to 74,COC(=O)c1cccc(O)c1
13,30 to 31,N#Cc1c(F)cccc1F
14,26 to 27.5,CC(=O)c1ccc(C)s1
15,10 to 14.5,CC(=O)N1CCOCC1
16,177 to 178,Cc1ccc(C(=O)O)c(O)c1
17,90 to 90.5,c1c[nH]cn1
18,79 to 80,NNC(=O)c1ccco1
19,145 to 146,NS(=O)(=O)c1ccc(Cl)cc1
20,46 to 47,COc1cc(C=O)cc(OC)c1

row,melting point [°C],SMILES
1,197 to 200,O=C1c2ccccc2C(=O)c2c(O)ccc(O)c21
2,-81 to -80,CC(C)COC(=O)C(C)C
3,33 to 34.5,C[C@H](O)[C@@H](C)O
4,-45 to -44,CCOCCOCCOCC
5,18 to 19,CNc1ccccc1C(=O)OC
6,-138 to -137,CCCC
7,117 to 118,COc1ccc([N+](=O)[O-])cc1N
8,139 to 140,CC(=O)N(O)CCCCCNC(=O)CCC(=O)N(O)CCCCCNC(=O)CCC(=O)N(O)CCCCCN
9,159 to 160,O=C(O)Cc1c(Cl)cccc1Cl
10,-30 to -29,Cc1cnccn1
11,12 to 15,C1CCCCCCC1
12,64 to 64.5,CC(=O)Oc1ccccc1OC(C)=O
13,11 to 11.2,Cc1cccc(C)c1I
14,76 to 77.5,O=C(c1ccccc1)c1ccc(Cl)cc1
15,10 to 12.3,CCCCCCCCC(=O)O
16,96.5 to 97,CCCCCCCCCCCCOC(=O)c1cc(O)c(O)c(O)c1
17,33 to 36.5,CCC/C=C/C(=O)O
18,173 to 175,Nc1cccc(C(=O)O)c1
19,-115,CCN(CC)CC
20,96 to 97.5,C[Si]1(C)N[Si](C)(C)N[Si](C)(C)N[Si](C)(C)N1

row,melting point [°C],SMILES
1,-33.3 to -33,CC1(C)CCCCC1
2,123 to 124,O=C(O)CCCc1c[nH]c2ccccc12
3,153 to 154,O=C(O)CC(O)(CC(=O)O)C(=O)O
4,15.5 to 16,BrCCCCCCCCBr
5,150,O=c1[nH]c(=O)n(C2CC(O)C(CO)O2)cc1F (centres undefined)
6,78 to 79.5,OCC(F)(F)C(F)(F)C(F)(F)CO
7,12 to 15,CCCCCCCCCC(C)=O
8,57.5 to 58,Nc1ccccn1
9,39 to 40,COc1cccc(OC)c1C
10,-177,CC1CC1
11,1.5 to 2,CCOC(=O)C#CC(=O)OCC
12,-18.1 to -18,Cc1cccnc1
13,150 to 151,COC(=O)c1c[nH]c2ccccc12
14,143 to 144,O=C(O)c1c(Cl)cccc1Cl
15,-76 to -75.9,CCCOC(=O)CC
16,-14.4 to -14,CCCCCCCCCCc1ccccc1
17,100 to 101,CC(CCC(=O)O)CC(=O)O (centres undefined)
18,-18 to -17.9,CC(c1ccccc1)c1ccccc1
19,120 to 121,Cn1ccc(=O)n(C)c1=O
20,-36 to -33.2,CCCCCCCO
